Holding throughout (assay): Broth microdilution MIC, European bacteraemia isolates 2010-2012
For orientation: In broth dilution the organism is exposed to a series of concentrations in liquid medium.

Experiment [1] relates to S. aureus. It counts as cell-based. The conditions noted are these: S. aureus Methicillin-resistant (1,708); for % Resistant, CLSI / % Susceptible, CLSI: CLSI M100-S23 breakpoints; for % Resistant, EUCAST / % Susceptible, EUCAST: EUCAST 2013 breakpoints; for MIC50 / MIC90: Staphylococcus aureus; for MIC50: read-out: MIC 50%; for MIC90: read-out: MIC 90%. How it is done: (§1) A total of 2,904 clinical strains responsible for documented bacteremia among unique hospitalized patients in 38 hospitals in 11 European Union countries. Israel, Russia, Turkey and Ukraine were included in this study (2010-2012). Isolates were submitted to a central monitoring laboratory (JMI Laboratories, North Liberty. Iowa. USA), following previously established protocols. Bacterial species identification was performed by using an automated system (Vitek®2; bioMèrieux, Hazelwood, Mo., USA) or conventional biochemical algorithms, as required.
(§2) Isolates were tested for susceptibility by broth microdilution methods following the Clinical and Laboratory Standards Institute (CLSI; M07-A9, 2012) document. Susceptibility testing was performed in cation-adjusted Mueller-Hinton broth (CA-MHB) using dry-form panels manufactured by Thermo Fisher Scientific, formerly TREK Diagnostics Systems/Sensititre (Cleveland. Ohio, USA). These panels provide results equivalent to the CLSI-approved broth microdilution method supplemented with 0.002% polysorbate-80.
(§3) Quality assurance was performed by concurrent testing of CLSI-recommended (M100-S23, 2013) strains: E. faecalis ATCC 29212 and S. aureus ATCC 29213. Interpretation of comparator MIC results was in accordance with published CLSI (M100-S23) and European Committee on Antimicrobial Susceptibility Testing (EUCAST, 2013) criteria.

Experiment [2] has as its system Coagulase-negative staphylococci. It counts as cell-based, coagulase-negative staphylococci (CoNS). As to conditions: Coagulase-negative staphylococci (646); for MIC50: read-out: MIC 50%; for MIC90: read-out: MIC 90%. How it is done:
as §1, §2, §3

In experiment [3] the test system is E. faecalis. Type of experiment: cell-based, Enterococcus faecalis. The conditions noted are these: for % Resistant, CLSI / % Susceptible, CLSI: CLSI M100-S23 breakpoints; for % Resistant, EUCAST / % Susceptible, EUCAST: EUCAST 2013 breakpoints; for % susceptible: E. faecalis strains, criteria not stated; for MIC50 / MIC90: Enterococcus faecalis; for MIC50: read-out: MIC 50%; for MIC90: read-out: MIC 90%. Here is the method: as §1, §2, §3

Experiment [4] has as its system E. faecium. Type of experiment: cell-based, Enterococcus faecium. As to conditions: for % Resistant, CLSI / % Susceptible, CLSI: CLSI M100-S23 breakpoints; for % Resistant, EUCAST / % Susceptible, EUCAST: EUCAST 2013 breakpoints; for MIC 50% / MIC 90% / MIC Range / MIC90 / MIC50: Table 2; for MIC90 / MIC50: Enterococcus faecium; for MIC90: read-out: MIC 90%; for MIC50: read-out: MIC 50%. Here is the method: as §1, §2, §3

Where [5] appears, read: E. faecium Vancomycin-resistant (VanA-phenotype) (153).
Where [6] appears, read: E. faecium Vancomycin-susceptible (257).

Values after ≈ are worked out from the molar mass of the structure shown. Read-outs that look alike come from different tables or passages of the source. Some results are limits rather than exact numbers.

For Teicoplanin, the “% Resistant, CLSI” value in experiment [1] stood at 0.0%; in experiment [2] (CLSI M100-S23 breakpoints) it was 0.8%; in experiment [3] (E. faecalis (445)), 0.9%; in experiment [4] (setting [5]), 96.2%; in experiment [4] (setting [6]) it was 0.0%. The “% Susceptible, CLSI” value in experiment [1] is given as 100.0%; in experiment [2] (CLSI M100-S23 breakpoints), 97.7%; in experiment [3] (E. faecalis (445)), 99.1%; in experiment [4] (setting [5]), 0.0%; in experiment [4] (setting [6]), 100.0%. Further, the “% Resistant, EUCAST” value in experiment [1] is listed as 0.0%; in experiment [2] (EUCAST 2013 breakpoints), 11.1%; in experiment [3] (E. faecalis (445)) it was 0.9%; in experiment [4] (setting [5]) it was 100.0%; in experiment [4] (setting [6]), 0.4%. Moreover, the “% Susceptible, EUCAST” value in experiment [1] came out at 100.0%; in experiment [2] (EUCAST 2013 breakpoints), 88.9%; in experiment [3] (E. faecalis (445)) it was 99.1%; in experiment [4] (setting [5]) it was 0.0%; in experiment [4] (setting [6]), 99.6%. Besides, the “MIC 50%” value is “≦2 mg/L” in experiment [1] (Table 2); “≦2 mg/L” in experiment [2] (Table 2); “≦2 mg/L” in experiment [3] (Table 2, E. faecalis (445)); >8 µg/mL in experiment [4] (setting [5]); “≦2 mg/L” in experiment [4] (setting [6]). Further, the “MIC 90%” value in experiment [1] (Table 2) is “≦2 mg/L”; in experiment [2] (Table 2), 8 µg/mL; in experiment [3] (Table 2, E. faecalis (445)) it was “≦2 mg/L”; in experiment [4] (setting [5]), >8 µg/mL; in experiment [4] (setting [6]), “≦2 mg/L”. Moreover, the “MIC Range” value was “≦2 mg/L” in experiment [1] (Table 2), >8 µg/mL in experiment [4] (setting [5]) and “≦2-4 mg/L” in experiment [4] (setting [6]). In addition, the “% susceptible” value in experiment [3] was 99.1%.
With `CC1(C)S[C@@H]2[C@H](NC(=O)[C@H](N)c3ccccc3)C(=O)N2[C@H]1C(=O)O` [Ampicillin], in experiment [3] (E. faecalis (445)), the “% Resistant, CLSI” value is reported as 0.0%; the “% Susceptible, CLSI” value worked out at 100.0%; the “% Resistant, EUCAST” value is given as 0.0%; the “% Susceptible, EUCAST” value came to 99.6%. Also, the “% susceptible” value in experiment [3] came out at 99.6%. Further, in experiment [3] (Table 2, E. faecalis (445)), the MIC50 is ≤ 1 µg/mL, the MIC90 came out at 2 µg/mL (≈ 5.72 µM) and the “MIC 50%” value is “≦1 mg/L”. Further, the “MIC Range” value in experiment [3] (Table 2, E. faecalis (445), includes four VanA-phenotype strains) is listed as “≦1-8 mg/L”. For the same compound, in experiment [4] (setting [5]), the “% Resistant, CLSI” value was 100.0%; the “% Susceptible, CLSI” value worked out at 0.0%; the “% Resistant, EUCAST” value turned out to be 100.0%; the “% Susceptible, EUCAST” value was determined as 0.0%. Further, in experiment [4] (setting [5]), the MIC90 is > 8 µg/mL, the “MIC 50%” value is >8 µg/mL and the “MIC Range” value was >8 µg/mL. Besides, in experiment [4] (setting [6]), the “% Resistant, CLSI” value was determined as 94.2%; the “% Susceptible, CLSI” value came out at 5.8%; the “% Resistant, EUCAST” value came to 94.2%; the “% Susceptible, EUCAST” value is recorded as 5.4%. Further, in experiment [4] (setting [6]), the MIC50 is > 8 µg/mL and the MIC90 is > 8 µg/mL.
Consider `CN(C)[C@@H]1C(O)=C(C(N)=O)C(=O)[C@@]2(O)C(O)=C3C(=O)c4c(O)cccc4[C@@](C)(O)[C@H]3C[C@@H]12` [Tetracycline], for which the “% Resistant, CLSI” value worked out at 14.2% in experiment [1]; 15.2% in experiment [2] (CLSI M100-S23 breakpoints); 73.5% in experiment [3] (E. faecalis (445)); 41.5% in experiment [4] (setting [5]); 43.2% in experiment [4] (setting [6]). Besides, the “% Susceptible, CLSI” value amounted to 84.9% in experiment [1], 26.5% in experiment [3] (E. faecalis (445)), 58.5% in experiment [4] (setting [5]) and 56.0% in experiment [4] (setting [6]). Besides, the “% Resistant, EUCAST” value in experiment [1] came to 15.1%. Also, the “% Susceptible, EUCAST” value in experiment [1] was determined as 84.4%. The MIC50 was ≤ 0.25 µg/mL in experiment [1] (Table 2); 1 µg/mL (≈ 2.25 µM) in experiment [2] (Table 2); > 8 µg/mL in experiment [3] (Table 2, E. faecalis (445)); 0.5 µg/mL (≈ 1.13 µM) in experiment [4] (setting [6]). Also, the MIC90 in experiment [1] (Table 2) is > 8 µg/mL; in experiment [2] (Table 2), > 8 µg/mL; in experiment [3] (Table 2, E. faecalis (445)) it was > 8 µg/mL; in experiment [4] (setting [5]), > 8 µg/mL; in experiment [4] (setting [6]) it was > 8 µg/mL. Moreover, the “MIC 50%” value in experiment [4] (setting [5]) was found to be 0.5 µg/mL (≈ 1.13 µM).
Turning to `Cc1onc(-c2ccccc2)c1C(=O)N[C@@H]1C(=O)N2[C@@H]1SC(C)(C)[C@@H]2C(=O)O` [Oxacillin], in experiment [2] (CLSI M100-S23 breakpoints), the “% Resistant, CLSI” value came to 78.8%. For the same compound, in experiment [2] (Table 2), the MIC50 was > 2 µg/mL and the MIC90 is > 2 µg/mL.
Turning to `CC[C@H]1OC(=O)[C@H](C)[C@@H](O[C@H]2C[C@@](C)(OC)[C@@H](O)[C@H](C)O2)[C@H](C)[C@@H](O[C@@H]2O[C@H](C)C[C@H](N(C)C)[C@H]2O)[C@](C)(O)C[C@@H](C)C(=O)[C@H](C)[C@@H](O)[C@]1(C)O` [Erythromycin], the “% Resistant, CLSI” value turned out to be 68.0% in experiment [1]; 65.1% in experiment [2] (CLSI M100-S23 breakpoints); 54.8% in experiment [3] (E. faecalis (445)); 98.1% in experiment [4] (setting [5]); 91.4% in experiment [4] (setting [6]). The “% Susceptible, CLSI” value turned out to be 29.6% in experiment [1], 8.1% in experiment [3] (E. faecalis (445)), 0.0% in experiment [4] (setting [5]) and 3.5% in experiment [4] (setting [6]). Moreover, the “% Resistant, EUCAST” value in experiment [1] was found to be 69.1%. For the same compound, the “% Susceptible, EUCAST” value in experiment [1] is 29.8%. The MIC50 is > 4 µg/mL in experiment [1] (Table 2); > 4 µg/mL in experiment [2] (Table 2); > 4 µg/mL in experiment [3] (Table 2, E. faecalis (445)); > 4 µg/mL in experiment [4] (setting [6]). In addition, the MIC90 in experiment [1] (Table 2) is > 4 µg/mL; in experiment [2] (Table 2), > 4 µg/mL; in experiment [3] (Table 2, E. faecalis (445)) it was > 4 µg/mL; in experiment [4] (setting [5]) it was > 4 µg/mL; in experiment [4] (setting [6]) it was > 4 µg/mL. Further, the “MIC 50%” value in experiment [4] (setting [5]) was >4 µg/mL.
Regarding `C[C@H]1COc2c(N3CCN(C)CC3)c(F)cc3c(=O)c(C(=O)O)cn1c23` [Levofloxacin], in experiment [1], the “% Resistant, CLSI” value was 90.3%; the “% Susceptible, CLSI” value amounted to 8.6%; the “% Resistant, EUCAST” value worked out at 90.3%; the “% Susceptible, EUCAST” value was 8.6%. For the same compound, in experiment [1] (Table 2), the MIC50 is > 4 µg/mL and the MIC90 is > 4 µg/mL. Also, in experiment [2] (CLSI M100-S23 breakpoints), the “% Resistant, CLSI” value turned out to be 56.2%. In experiment [2] (Table 2), the MIC50 is 4 µg/mL (≈ 11.1 µM) and the MIC90 is > 4 µg/mL. Besides, in experiment [3] (E. faecalis (445)), the “% Resistant, CLSI” value turned out to be 35.3% and the “% Susceptible, CLSI” value is given as 64.3%. In experiment [3] (Table 2, E. faecalis (445)), the MIC50 came out at 1 µg/mL (≈ 2.77 µM) and the MIC90 was > 4 µg/mL. In experiment [4] (setting [5]), the “% Resistant, CLSI” value is recorded as 100.0%; the “% Susceptible, CLSI” value is recorded as 0.0%; the MIC90 is > 4 µg/mL; the “MIC 50%” value was >4 µg/mL. In experiment [4] (setting [5]), the “MIC Range” value is >4 µg/mL. For the same compound, in experiment [4] (setting [6]), the “% Resistant, CLSI” value is 89.1%; the “% Susceptible, CLSI” value is reported as 5.8%; the MIC50 is > 4 µg/mL; the MIC90 was > 4 µg/mL.
With `CCC[C@@H]1C[C@@H](C(=O)N[C@@H]([C@H]2O[C@H](SC)[C@H](O)[C@@H](O)[C@H]2O)[C@H](C)Cl)N(C)C1` [Clindamycin], in experiment [1], the “% Resistant, CLSI” value was determined as 40.3%; the “% Susceptible, CLSI” value came out at 59.1%; the “% Resistant, EUCAST” value was 40.9%; the “% Susceptible, EUCAST” value was 58.9%. For the same compound, in experiment [1] (Table 2), the MIC50 is ≤ 0.25 µg/mL and the MIC90 was > 2 µg/mL. Moreover, the “% Resistant, CLSI” value in experiment [2] (CLSI M100-S23 breakpoints) stood at 26.0%. Besides, in experiment [2] (Table 2), the MIC50 is ≤ 0.25 µg/mL and the MIC90 is > 2 µg/mL.

The record behind these values is patent US20160206688A1, “METHODS FOR TREATING BACTEREMIA AND OSTEOMYELITIS USING ORITAVANCIN” (THE MEDICINES COMPANY, priority 2013, published 2016).
